# Results from ChEMBL document CHEMBL1201862, “PubChem BioAssay data set” (2004).
#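 Cells were grown in 96-well plates and exposed to each compound for 48 hours at five concentrations; endpoints were interpolated linearly between bracketing concentrations, or set to the highest concentration if not reached. GI50 marks 50% less growth.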 Activity calls are given as the source filed them. Cut-off read from the data, not from the text of the source: active = GI50 up to about 1.1 µM and inactive = higher.
# Experiments:
# Experiment in all cases: inhibition of tumour cell growth, NCI panel, 48 h
# [1] = test system: MOLT-4
# [2] = test system: M14
# [3] = test system: DLD-1
# [4] = test system: SK-MEL-28
# [5] = test system: EKVX
# [6] = test system: RPMI-8226
# [7] = test system: SF-268
# [8] = test system: KM-20L2
# [9] = test system: DMS-273
# [10] = test system: CAKI-1
# [11] = test system: IGROV-1
# [12] = test system: SNB-78
# [13] = test system: SNB-19
# [14] = test system: SK-OV-3
# [15] = test system: SW-620
# [16] = test system: UO-31
# [17] = test system: TK-10
# [18] = test system: HCT-116
# [19] = test system: A549
# [20] = test system: NCI-H460
# [21] = test system: XF498
# [22] = test system: KM12
# [23] = test system: SK-MEL-5
# [24] = test system: NCI-H23
# [25] = test system: OVCAR-4
# [26] = test system: LXFL 529
# [27] = test system: U-251
# [28] = test system: NCI-H226
# [29] = test system: DMS-114
# [30] = test system: OVCAR-8
# [31] = test system: SK-MEL-2
# [32] = test system: HOP-18
# [33] = test system: ACHN
# [34] = test system: Malme-3M
# [35] = test system: RXF 393
# [36] = test system: LOX IMVI
# [37] = test system: CCRF-CEM
# [38] = test system: UACC-257
# [39] = test system: SF-295
# [40] = test system: UACC-62
# [41] = test system: SN12C
# [42] = test system: SF-539
# [43] = test system: HL-60
# [44] = test system: OVCAR-3
# [45] = test system: HCC 2998
# [46] = test system: OVCAR-5
# [47] = test system: HT-29
# [48] = test system: HOP-62
# [49] = test system: SNB-75
# [50] = test system: COLO 205
# [51] = test system: 786-0
# [52] = test system: NCI-H522
# [53] = test system: K562
# [54] = test system: HCT-15
# [55] = test system: M19-MEL
# [56] = test system: A498
# [57] = test system: HOP-92
structure (smiles),measurement,setting,value
COc1cc(O)c(C(=O)CC(C)=O)c(OC)c1,GI50,[1],> 100 µM (inactive)
same,GI50,[2],> 100 µM (inactive)
same,GI50,[3],> 100 µM (inactive)
same,GI50,[4],> 100 µM (inactive)
same,GI50,[5],> 100 µM (inactive)
same,GI50,[6],> 100 µM (inactive)
same,GI50,[7],> 100 µM (inactive)
same,GI50,[8],> 100 µM (inactive)
same,GI50,[9],> 100 µM (inactive)
same,GI50,[10],> 100 µM (inactive)
same,GI50,[11],> 100 µM (inactive)
same,GI50,[12],> 100 µM (inactive)
same,GI50,[13],> 100 µM (inactive)
same,GI50,[14],> 100 µM (inactive)
same,GI50,[15],> 100 µM (inactive)
same,GI50,[16],> 100 µM (inactive)
same,GI50,[17],> 100 µM (inactive)
same,GI50,[18],> 100 µM (inactive)
same,GI50,[19],> 100 µM (inactive)
same,GI50,[20],> 100 µM (inactive)
same,GI50,[21],> 100 µM (inactive)
same,GI50,[22],> 100 µM (inactive)
same,GI50,[23],> 100 µM (inactive)
same,GI50,[24],> 100 µM (inactive)
same,GI50,[25],> 100 µM (inactive)
same,GI50,[26],> 100 µM (inactive)
same,GI50,[27],> 100 µM (inactive)
same,GI50,[28],> 100 µM (inactive)
same,GI50,[29],> 100 µM (inactive)
same,GI50,[30],> 100 µM (inactive)
same,GI50,[31],> 100 µM (inactive)
same,GI50,[32],> 100 µM (inactive)
same,GI50,[33],> 100 µM (inactive)
same,GI50,[34],> 100 µM (inactive)
same,GI50,[35],> 100 µM (inactive)
same,GI50,[36],> 100 µM (inactive)
same,GI50,[37],> 100 µM (inactive)
same,GI50,[38],> 100 µM (inactive)
same,GI50,[39],> 100 µM (inactive)
same,GI50,[40],> 100 µM (inactive)
same,GI50,[41],> 100 µM (inactive)
same,GI50,[42],> 100 µM (inactive)
same,GI50,[43],> 100 µM (inactive)
same,GI50,[44],> 100 µM (inactive)
same,GI50,[45],> 100 µM (inactive)
same,GI50,[46],> 100 µM (inactive)
same,GI50,[47],> 100 µM (inactive)
same,GI50,[48],> 100 µM (inactive)
same,GI50,[49],76.4 µM (inactive)
same,GI50,[50],> 100 µM (inactive)
same,GI50,[51],> 100 µM (inactive)
same,GI50,[52],> 100 µM (inactive)
same,GI50,[53],> 100 µM (inactive)
O=S(O)CCCSSCCCCSSCCCS(=O)O,GI50,[1],26.7 µM (inactive)
same,GI50,[2],> 100 µM (inactive)
same,GI50,[3],> 100 µM (inactive)
same,GI50,[4],> 100 µM (inactive)
same,GI50,[5],34.4 µM (inactive)
same,GI50,[7],> 100 µM (inactive)
same,GI50,[8],> 100 µM (inactive)
same,GI50,[9],> 100 µM (inactive)
same,GI50,[10],> 100 µM (inactive)
same,GI50,[11],> 100 µM (inactive)
same,GI50,[12],> 100 µM (inactive)
same,GI50,[13],> 100 µM (inactive)
same,GI50,[14],> 100 µM (inactive)
same,GI50,[15],> 100 µM (inactive)
same,GI50,[16],> 100 µM (inactive)
same,GI50,[17],> 100 µM (inactive)
same,GI50,[18],> 100 µM (inactive)
same,GI50,[19],> 100 µM (inactive)
same,GI50,[20],> 100 µM (inactive)
same,GI50,[21],> 100 µM (inactive)
same,GI50,[22],> 100 µM (inactive)
same,GI50,[23],> 100 µM (inactive)
same,GI50,[24],> 100 µM (inactive)
same,GI50,[25],> 100 µM (inactive)
same,GI50,[26],> 100 µM (inactive)
same,GI50,[27],> 100 µM (inactive)
same,GI50,[29],> 100 µM (inactive)
same,GI50,[30],> 100 µM (inactive)
same,GI50,[31],> 100 µM (inactive)
same,GI50,[32],> 100 µM (inactive)
same,GI50,[33],> 100 µM (inactive)
same,GI50,[34],> 100 µM (inactive)
same,GI50,[35],> 100 µM (inactive)
same,GI50,[36],> 100 µM (inactive)
same,GI50,[37],> 100 µM (inactive)
same,GI50,[38],> 100 µM (inactive)
same,GI50,[39],> 100 µM (inactive)
same,GI50,[40],> 100 µM (inactive)
same,GI50,[41],> 100 µM (inactive)
same,GI50,[54],> 100 µM
same,GI50,[42],> 100 µM (inactive)
same,GI50,[44],> 100 µM (inactive)
same,GI50,[45],> 100 µM (inactive)
same,GI50,[46],> 100 µM (inactive)
same,GI50,[47],> 100 µM (inactive)
same,GI50,[48],> 100 µM (inactive)
same,GI50,[49],66.8 µM (inactive)
same,GI50,[55],> 100 µM (inactive)
same,GI50,[50],> 100 µM (inactive)
same,GI50,[51],> 100 µM (inactive)
same,GI50,[52],> 100 µM (inactive)
same,GI50,[56],> 100 µM (inactive)
same,GI50,[53],> 100 µM (inactive)
CC1(C)OP23(NC(=O)OC2(C(F)(F)F)c2ccccc2O3)OC1(C)C (stereo not given),GI50,[1],> 100 µM (inactive)
same,GI50,[2],> 100 µM (inactive)
same,GI50,[3],> 100 µM (inactive)
same,GI50,[4],> 100 µM (inactive)
same,GI50,[7],> 100 µM (inactive)
same,GI50,[9],> 100 µM (inactive)
same,GI50,[12],> 100 µM (inactive)
same,GI50,[13],> 100 µM (inactive)
same,GI50,[14],> 100 µM (inactive)
same,GI50,[16],> 100 µM (inactive)
same,GI50,[17],> 100 µM (inactive)
same,GI50,[18],> 100 µM (inactive)
same,GI50,[19],> 100 µM (inactive)
same,GI50,[20],> 100 µM (inactive)
same,GI50,[21],> 100 µM (inactive)
same,GI50,[22],> 100 µM (inactive)
same,GI50,[23],> 100 µM (inactive)
same,GI50,[24],> 100 µM (inactive)
same,GI50,[25],> 100 µM (inactive)
same,GI50,[26],> 100 µM (inactive)
same,GI50,[27],> 100 µM (inactive)
same,GI50,[28],> 100 µM (inactive)
same,GI50,[29],> 100 µM (inactive)
same,GI50,[30],> 100 µM (inactive)
same,GI50,[31],> 100 µM (inactive)
same,GI50,[32],> 100 µM (inactive)
same,GI50,[33],> 100 µM (inactive)
same,GI50,[34],> 100 µM (inactive)
same,GI50,[35],> 100 µM (inactive)
same,GI50,[36],> 100 µM (inactive)
same,GI50,[37],> 100 µM (inactive)
same,GI50,[38],> 100 µM (inactive)
same,GI50,[39],> 100 µM (inactive)
same,GI50,[40],> 100 µM (inactive)
same,GI50,[41],> 100 µM (inactive)
same,GI50,[54],> 100 µM
same,GI50,[42],> 100 µM (inactive)
same,GI50,[43],> 100 µM (inactive)
same,GI50,[44],> 100 µM (inactive)
same,GI50,[47],> 100 µM (inactive)
same,GI50,[49],> 100 µM (inactive)
same,GI50,[55],> 100 µM (inactive)
same,GI50,[52],> 100 µM (inactive)
same,GI50,[53],> 100 µM (inactive)
CCOC(=O)NNC(=O)NC12CC3CC(CC(C3)C1)C2,GI50,[1],> 100 µM (inactive)
same,GI50,[2],> 100 µM (inactive)
same,GI50,[3],> 100 µM (inactive)
same,GI50,[4],> 100 µM (inactive)
same,GI50,[57],> 100 µM (inactive)
same,GI50,[5],> 100 µM (inactive)
same,GI50,[7],> 100 µM (inactive)
same,GI50,[8],> 100 µM (inactive)
same,GI50,[9],> 100 µM (inactive)
same,GI50,[10],> 100 µM (inactive)
same,GI50,[11],> 100 µM (inactive)
same,GI50,[12],> 100 µM (inactive)
same,GI50,[13],> 100 µM (inactive)
same,GI50,[14],> 100 µM (inactive)
same,GI50,[15],> 100 µM (inactive)
same,GI50,[16],> 100 µM (inactive)
same,GI50,[17],> 100 µM (inactive)
same,GI50,[18],> 100 µM (inactive)
same,GI50,[19],> 100 µM (inactive)
same,GI50,[20],> 100 µM (inactive)
same,GI50,[21],> 100 µM (inactive)
same,GI50,[22],> 100 µM (inactive)
same,GI50,[23],> 100 µM (inactive)
same,GI50,[24],> 100 µM (inactive)
same,GI50,[25],> 100 µM (inactive)
same,GI50,[26],> 100 µM (inactive)
same,GI50,[27],> 100 µM (inactive)
same,GI50,[28],> 100 µM (inactive)
same,GI50,[29],> 100 µM (inactive)
same,GI50,[30],> 100 µM (inactive)
same,GI50,[31],> 100 µM (inactive)
same,GI50,[32],> 100 µM (inactive)
same,GI50,[33],> 100 µM (inactive)
same,GI50,[34],> 100 µM (inactive)
same,GI50,[35],> 100 µM (inactive)
same,GI50,[36],> 100 µM (inactive)
same,GI50,[37],> 100 µM (inactive)
same,GI50,[38],> 100 µM (inactive)
same,GI50,[39],> 100 µM (inactive)
same,GI50,[40],> 100 µM (inactive)
same,GI50,[41],> 100 µM (inactive)
same,GI50,[54],> 100 µM
same,GI50,[42],> 100 µM (inactive)
same,GI50,[44],> 100 µM (inactive)
same,GI50,[45],> 100 µM (inactive)
same,GI50,[46],> 100 µM (inactive)
same,GI50,[47],> 100 µM (inactive)
same,GI50,[48],> 100 µM (inactive)
same,GI50,[49],> 100 µM (inactive)
same,GI50,[55],> 100 µM (inactive)
same,GI50,[50],> 100 µM (inactive)
same,GI50,[51],> 100 µM (inactive)
same,GI50,[52],> 100 µM (inactive)
same,GI50,[56],> 100 µM (inactive)
same,GI50,[53],> 100 µM (inactive)
